Laboratory results from paper PMC8225008, “Development of Non-Ethoxypropanoic Acid Type Cryptochrome Inhibitors with Circadian Molecular Clock-Enhancing Activity by Bioisosteric Replacement” (Pharmaceuticals, 2021).

What was measured:
hCRY1 = target: T1, hCRY1 (Homo sapiens, UniProt Q16526); test: Surface plasmon resonance, CRY1; format: binding; parameters: GST; purchased MyBioSource; host or cells: baculovirus expression system; conditions: SPR, His-tagged CRY1, Langmuir 1:1 model
T1 sequence (Q16526 1-586): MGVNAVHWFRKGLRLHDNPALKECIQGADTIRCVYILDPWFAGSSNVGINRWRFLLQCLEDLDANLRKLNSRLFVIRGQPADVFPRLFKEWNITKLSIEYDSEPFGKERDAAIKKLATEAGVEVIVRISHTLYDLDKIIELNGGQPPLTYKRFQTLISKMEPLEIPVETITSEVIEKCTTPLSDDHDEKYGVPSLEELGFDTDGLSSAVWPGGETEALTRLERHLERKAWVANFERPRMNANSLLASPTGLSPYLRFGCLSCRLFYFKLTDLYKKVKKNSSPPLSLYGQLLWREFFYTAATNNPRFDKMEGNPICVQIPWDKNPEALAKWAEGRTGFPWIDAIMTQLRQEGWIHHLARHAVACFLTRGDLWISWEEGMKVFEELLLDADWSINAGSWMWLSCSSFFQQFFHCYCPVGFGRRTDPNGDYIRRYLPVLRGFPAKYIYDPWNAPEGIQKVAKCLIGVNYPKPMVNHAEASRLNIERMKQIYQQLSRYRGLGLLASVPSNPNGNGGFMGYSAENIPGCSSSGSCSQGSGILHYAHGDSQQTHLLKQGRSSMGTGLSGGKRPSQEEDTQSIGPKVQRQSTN
Protocol: We used a ProteOn XPR36 system (Bio-Rad, Hercules, CA, USA) equipped with a HTE sensor chip (high capacity tris-NTA for histidine-tagged […] capture, Bio-Rad) for surface plasmon resonance analyses. Purified target proteins (6xHis- and GST-tagged hCRY1 and hCRY2) were prepared by a baculovirus expression system (MyBioSource, San Diego, CA, USA). Phosphate buffered saline (PBS) plus 0.005% Tween 20 was used as the running buffer. The 6xHis-hCRY1 and 6xHis-hCRY2 proteins were immobilized onto separate channels of a HTE chip by injecting 210 μL protein sample (2.0 μg/mL) into flow cells (30 μL/min) to allow saturation. Serially diluted compound 2d samples (50–800 μM) were prepared in 4% DMSO in TBS-T buffer. […] Recorded resonance units (RU) were normalized and plotted against chemical concentration. […]
(§1) The EC50 values for luciferase reporter assay were calculated based on a logistic four-parametric equation using the mean values of intrinsic activation (SigmaPlot 10.0; Systat Software Inc., San Jose, CA, USA). The IC50 and t1/2 values for the cytochrome P450 inhibition assay and metabolic stability test were calculated by WinNonlin software (Pharsight, Mountain View, CA, USA). Pharmacokinetic parameters were calculated using non-compartmental analysis (WinNonlin v.8.3; Pharsight, Mountain View, CA, USA). […]

CYP2D6 = target: T2, CYP2D6 (Homo sapiens, UniProt P10635); test: Cytochrome P450 inhibition assay (cocktail method, human liver microsomes), dextromethorphan O-demethylation; format: in vitro ADME
T2 construct: pooled human liver microsomes (HLMs, XTreme 200, XenoTech, Lenexa, KS, USA); tissue XenoTech XTreme 200; host or cells: pooled human liver microsomes
T2 sequence (P10635 whole entry): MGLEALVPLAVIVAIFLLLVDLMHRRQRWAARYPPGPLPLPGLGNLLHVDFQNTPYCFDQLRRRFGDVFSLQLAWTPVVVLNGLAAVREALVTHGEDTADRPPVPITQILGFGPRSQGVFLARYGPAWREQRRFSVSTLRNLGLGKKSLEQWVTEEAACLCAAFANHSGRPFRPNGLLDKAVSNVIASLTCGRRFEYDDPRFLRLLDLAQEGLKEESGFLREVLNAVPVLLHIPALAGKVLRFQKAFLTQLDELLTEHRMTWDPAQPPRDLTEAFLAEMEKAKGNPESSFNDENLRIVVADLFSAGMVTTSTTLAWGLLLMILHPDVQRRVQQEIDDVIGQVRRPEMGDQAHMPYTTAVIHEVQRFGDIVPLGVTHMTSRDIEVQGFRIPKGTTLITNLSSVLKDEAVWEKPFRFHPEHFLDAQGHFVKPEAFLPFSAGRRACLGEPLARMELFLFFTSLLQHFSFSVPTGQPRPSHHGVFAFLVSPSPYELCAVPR
Protocol: The inhibitory effects of KS15 and compound 5d on the metabolism of five cytochrome P450 (P450) probe substrates were evaluated using previous methods with slight modifications. The following P450 probe substrates were used: phenacetin (100 μM) for CYP1A2, tolbutamide (100 μM) for CYP2C9, omeprazole (20 μM) for CYP2C19, dextromethorphan (5 μM) for CYP2D6, and midazolam (5 μM) for CYP3A. Incubation mixtures containing pooled human liver microsomes (HLMs, XTreme 200, XenoTech, Lenexa, KS, USA), P450 probe substrates, and KS15 or compound 5d (final concentrations: 0, 0.5, 2, 5, 20, and 50 μM) were preincubated for 5 min at 37 °C. […] After centrifugation at 18,000× g (5 min, 4 °C), supernatant aliquots were analyzed by liquid chromatography-tandem mass spectrometry (LC-MS/MS). […]
All metabolites and IS were separated on a Kinetex C18 column (100 mm × 2.1 mm, 2.6 μm ID., Phenomenex, Torrance, CA, USA) and analyzed using an LC-MS/MS system (LCMS 8060, Shimadzu, Tokyo, Japan) equipped with an electrospray ionization (ESI) interface. […]
as §1, with “The IC50 and t1/2 values for the cytochrome P450 inhibition assay and metabolic stability test were calculated by WinNonlin software (Pharsight, Mountain View, CA, USA).” left out

Compound `CC(=NOCc1ccc([N+](=O)[O-])cc1)c1cccc(OCC(=O)O)c1` [Compound 2d, 2-(3-(1-(((4-nitrobenzyl)oxy)imino)ethyl)phenoxy)acetic acid] has a Kd (hCRY1) of 389 µM.
In the case of `COC(=O)COc1cccc(C(C)=NOCc2ccc([N+](=O)[O-])cc2)c1` [Compound 5d, Methyl 2-(3-(1-(((4-nitrobenzyl)oxy)imino)ethyl)phenoxy)acetate], the IC50 (CYP2D6) is reported as over 50 µM.
